Measured values reported in ChEMBL document CHEMBL4376834, “Discovery of 4H-Chromen-4-one Derivatives as a New Class of Selective Rho Kinase (ROCK) Inhibitors, which Showed Potent Activity in ex Vivo Diabetic Retinopathy Models” (J Med Chem, 2019).

What was measured:
[1] = target: Ribosomal protein S6 kinase alpha-4 (Homo sapiens, UniProt O75676); experiment: Inhibition of recombinant human MSK2 (2 to end residues) using GRPRTSSFAEGKK as substrate incubated for 40 mins in presence of [gamma-33ATP by radiometric scintillation counting analysis
[2] = target: Mast/stem cell growth factor receptor Kit (Homo sapiens, UniProt P10721, V654A); experiment: Inhibition of recombinant human C-Kit V654A mutant (544 to end residues) using poly(Glu, Tyr) 4:1 as substrate incubated 40 mins in presence of [gamma-33ATP] by radiometric scintillation counting analysis
[3] = target: Proto-oncogene tyrosine-protein kinase Src (Homo sapiens, UniProt P12931); experiment: Inhibition of recombinant human SRC (1 to 530 residues) using GGEEEEYFELVKK as substrate incubated for 40 mins in presence of [gamma33P]ATP by radiometric scintillation counting analysis
[4] = target: Tyrosine-protein kinase TXK (Homo sapiens, UniProt P42681); experiment: Inhibition of recombinant human Txk (256 to end residues) using GEEPLYWSFPAKK as substrate incubated for 40 mins in presence of [gamma33P]ATP by radiometric scintillation counting analysis
[5] = target: Mast/stem cell growth factor receptor Kit (Homo sapiens, UniProt P10721, V560G); experiment: Inhibition of recombinant human C-Kit V560G mutant (544 to end residues) using poly(Glu, Tyr) 4:1 as substrate incubated 40 mins in presence of [gamma-33ATP] by radiometric scintillation counting analysis
[6] = target: Casein kinase I isoform gamma-2 (Homo sapiens, UniProt P78368); experiment: Inhibition of recombinant human CK1gamma2 (18 to end residues) using KRRRALS(p)VAS as substrate incubated for 40 mins in presence of [gamma-33ATP] by radiometric scintillation counting analysis
Tribbles homolog 2 = Tribbles homolog 2 (Homo sapiens, UniProt Q92519); experiment: Inhibition of recombinant full-length human TRB2 using RRRFRPASPLRGP as substrate incubated for 120 mins in presence of [gamma33P]ATP by radiometric scintillation counting analysis
Ephrin type-B receptor 4 = Ephrin type-B receptor 4 (Homo sapiens, UniProt P54760); experiment: Inhibition of recombinant human EphB4 (561 to end residues) using poly(Glu, Tyr) 4:1 as substrate after 40 mins in presence of [gamma-33ATP] by radiometric scintillation counting analysis
[7] = Inhibition of recombinant human DDR1 V833L mutant (492 to end residues) using KKKSPGEYVNIEF as substrate after 40 mins in presence of [gamma-33ATP] by radiometric scintillation counting analysis
[8] = target: Ribosomal protein S6 kinase alpha-1 (Homo sapiens, UniProt Q15418); experiment: Inhibition of recombinant full length human Rsk1 using KKKNRTLSVA as substrate incubated for 40 mins in presence of [gamma33P]ATP by radiometric scintillation counting analysis
[9] = target: Serine/threonine-protein kinase 25 (Homo sapiens, UniProt O00506); experiment: Inhibition of recombinant human STK25 (1 to 308 residues) using RLGRDKYKTLRQI as substrate incubated for 40 mins in presence of [gamma33P]ATP by radiometric scintillation counting analysis
[10] = target: Receptor tyrosine-protein kinase erbB-4 (Homo sapiens, UniProt Q15303); experiment: Inhibition of recombinant human ERBB4 (706 to 991 residues) using poly(Glu, Tyr) 4:1 as substrate after 40 mins in presence of [gamma-33ATP] by radiometric scintillation counting analysis
Ephrin type-B receptor 1 = Ephrin type-B receptor 1 (Homo sapiens, UniProt P54762); experiment: Inhibition of recombinant human EphB1 (564 to end residues) using […] as substrate after 40 mins in presence of [gamma-33ATP] by radiometric scintillation counting analysis
[11] = target: Serine/threonine-protein kinase 16 (Homo sapiens, UniProt O75716); experiment: Inhibition of human STK16 in presence of 10 uM ATP by radiometric analysis
[12] = target: cGMP-dependent protein kinase 1 (Homo sapiens, UniProt Q13976); experiment: Inhibition of recombinant full length human PKG1beta using RRRLSFAEPG as substrate incubated for 40 mins in presence of [gamma-33P]ATP by radiometric scintillation counting analysis
[13] = target: Epidermal growth factor receptor (Homo sapiens, UniProt P00533, T790M); experiment: Inhibition of recombinant human EGFR T790M mutant (696 to end residues) using poly(Glu, Tyr) 4:1 as substrate after 40 mins in presence of [gamma-33ATP] by radiometric scintillation counting analysis
[14] = target: Receptor-type tyrosine-protein kinase FLT3 (Homo sapiens, UniProt P36888, D835Y); experiment: Inhibition of recombinant human FLT3 D835Y mutant (564 to end residues) using EAIYAAPFAKKK as substrate after 40 mins in presence of [gamma-33ATP] by radiometric scintillation counting analysis
[15] = target: Serine/threonine-protein kinase Chk2 (Homo sapiens, UniProt O96017, R145W); experiment: Inhibition of recombinant human CHK2 R145W mutant (5 to end residues) using KKKVSRSGLYRSP as substrate incubated for 40 mins in presence of [gamma-33ATP] by radiometric scintillation counting analysis
[16] = Apparent permeability in dog MDCK cells incubated for 90 mins by LC-MS analysis; assay type: ADME, cell-based, Canis lupus familiaris
[17] = target: Serine/threonine-protein kinase PAK 3 (Homo sapiens, UniProt O75914); experiment: Inhibition of recombinant full-length human PAK3 using RRRLSFAEPG as substrate measured after 40 mins in presence of [gamma33P]ATP by radiometric scintillation counting analysis
[18] = target: Receptor-interacting serine/threonine-protein kinase 1 (Homo sapiens, UniProt Q13546); experiment: Inhibition of recombinant human RIPK1 (8 to 322 residues) using myelin basic protein as substrate incubated for 40 mins in presence of [gamma33P]ATP by radiometric scintillation counting analysis
[19] = target: Glycogen synthase kinase-3 beta (Homo sapiens, UniProt P49841); experiment: Inhibition of human GSK-3beta H350L mutant (2 to end residues) using YRRAAVPPSPSLSR as substrate after 40 mins by [gamma-33ATP] radiometric assay
[20] = target: Protein kinase C iota type (Homo sapiens, UniProt P41743); experiment: Inhibition of recombinant full-length human PKCiota using ERMRPRKRQGSVRR as substrate incubated for 40 mins in presence of [gamma33P]ATP by radiometric scintillation counting analysis
[21] = target: Testis-specific serine/threonine-protein kinase 3 (Homo sapiens, UniProt Q96PN8); experiment: Inhibition of recombinant full-length human TSSK3 using AMARAASAAALAR as substrate incubated for 40 mins in presence of [gamma33P]ATP by radiometric scintillation counting analysis
[22] = target: Fibroblast growth factor receptor 2 (Homo sapiens, UniProt P21802); experiment: Inhibition of recombinant human FGFR2 (456 to 770 residues) using poly(Glu, Tyr) 4:1 as substrate after 40 mins in presence of [gamma-33ATP] by radiometric scintillation counting analysis

Chain of Proto-oncogene tyrosine-protein kinase Src (P12931 2-536 limits assumed): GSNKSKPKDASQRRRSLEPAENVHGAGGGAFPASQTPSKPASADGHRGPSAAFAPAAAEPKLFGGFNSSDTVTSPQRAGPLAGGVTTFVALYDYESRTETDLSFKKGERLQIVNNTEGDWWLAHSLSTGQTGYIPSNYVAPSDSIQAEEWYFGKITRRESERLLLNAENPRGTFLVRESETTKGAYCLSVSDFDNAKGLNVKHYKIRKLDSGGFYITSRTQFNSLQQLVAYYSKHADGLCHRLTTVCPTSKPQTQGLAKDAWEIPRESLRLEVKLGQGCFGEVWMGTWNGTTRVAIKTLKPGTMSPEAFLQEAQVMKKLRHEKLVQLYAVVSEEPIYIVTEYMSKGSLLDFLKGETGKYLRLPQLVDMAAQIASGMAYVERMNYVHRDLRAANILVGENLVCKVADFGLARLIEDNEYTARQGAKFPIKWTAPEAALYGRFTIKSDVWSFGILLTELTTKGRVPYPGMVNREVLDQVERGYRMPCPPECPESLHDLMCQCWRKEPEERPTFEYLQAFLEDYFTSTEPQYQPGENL
Chain of Glycogen synthase kinase-3 beta (P49841 whole entry): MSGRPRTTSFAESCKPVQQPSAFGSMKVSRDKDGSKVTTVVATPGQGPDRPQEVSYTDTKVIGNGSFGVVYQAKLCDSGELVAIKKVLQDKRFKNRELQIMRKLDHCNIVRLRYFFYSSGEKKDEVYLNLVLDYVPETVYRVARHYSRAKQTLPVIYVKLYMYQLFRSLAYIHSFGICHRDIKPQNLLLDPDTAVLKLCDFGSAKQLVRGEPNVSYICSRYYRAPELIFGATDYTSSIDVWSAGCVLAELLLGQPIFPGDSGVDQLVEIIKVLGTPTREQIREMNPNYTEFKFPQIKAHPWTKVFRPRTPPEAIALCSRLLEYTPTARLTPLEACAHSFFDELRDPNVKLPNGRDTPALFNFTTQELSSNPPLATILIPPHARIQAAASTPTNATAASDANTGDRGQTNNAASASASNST
Chain of Tyrosine-protein kinase TXK (P42681 whole entry): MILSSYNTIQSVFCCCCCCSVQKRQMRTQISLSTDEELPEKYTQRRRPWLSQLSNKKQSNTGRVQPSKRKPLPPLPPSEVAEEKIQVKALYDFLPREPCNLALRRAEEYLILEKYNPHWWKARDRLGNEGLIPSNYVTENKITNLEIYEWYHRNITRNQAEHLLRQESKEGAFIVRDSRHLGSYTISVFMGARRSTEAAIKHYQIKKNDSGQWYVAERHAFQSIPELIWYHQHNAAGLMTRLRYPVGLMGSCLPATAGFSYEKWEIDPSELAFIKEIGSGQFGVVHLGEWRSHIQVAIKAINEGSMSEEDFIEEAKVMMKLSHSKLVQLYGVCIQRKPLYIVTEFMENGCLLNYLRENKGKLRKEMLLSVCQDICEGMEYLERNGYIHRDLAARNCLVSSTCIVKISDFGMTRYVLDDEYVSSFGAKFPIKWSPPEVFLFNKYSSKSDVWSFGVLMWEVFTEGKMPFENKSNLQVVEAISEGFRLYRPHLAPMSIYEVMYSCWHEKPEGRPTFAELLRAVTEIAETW
Chain of Mast/stem cell growth factor receptor Kit (Homo sapiens, UniProt P10721, V560G) (P10721 26-976 V560G limits assumed): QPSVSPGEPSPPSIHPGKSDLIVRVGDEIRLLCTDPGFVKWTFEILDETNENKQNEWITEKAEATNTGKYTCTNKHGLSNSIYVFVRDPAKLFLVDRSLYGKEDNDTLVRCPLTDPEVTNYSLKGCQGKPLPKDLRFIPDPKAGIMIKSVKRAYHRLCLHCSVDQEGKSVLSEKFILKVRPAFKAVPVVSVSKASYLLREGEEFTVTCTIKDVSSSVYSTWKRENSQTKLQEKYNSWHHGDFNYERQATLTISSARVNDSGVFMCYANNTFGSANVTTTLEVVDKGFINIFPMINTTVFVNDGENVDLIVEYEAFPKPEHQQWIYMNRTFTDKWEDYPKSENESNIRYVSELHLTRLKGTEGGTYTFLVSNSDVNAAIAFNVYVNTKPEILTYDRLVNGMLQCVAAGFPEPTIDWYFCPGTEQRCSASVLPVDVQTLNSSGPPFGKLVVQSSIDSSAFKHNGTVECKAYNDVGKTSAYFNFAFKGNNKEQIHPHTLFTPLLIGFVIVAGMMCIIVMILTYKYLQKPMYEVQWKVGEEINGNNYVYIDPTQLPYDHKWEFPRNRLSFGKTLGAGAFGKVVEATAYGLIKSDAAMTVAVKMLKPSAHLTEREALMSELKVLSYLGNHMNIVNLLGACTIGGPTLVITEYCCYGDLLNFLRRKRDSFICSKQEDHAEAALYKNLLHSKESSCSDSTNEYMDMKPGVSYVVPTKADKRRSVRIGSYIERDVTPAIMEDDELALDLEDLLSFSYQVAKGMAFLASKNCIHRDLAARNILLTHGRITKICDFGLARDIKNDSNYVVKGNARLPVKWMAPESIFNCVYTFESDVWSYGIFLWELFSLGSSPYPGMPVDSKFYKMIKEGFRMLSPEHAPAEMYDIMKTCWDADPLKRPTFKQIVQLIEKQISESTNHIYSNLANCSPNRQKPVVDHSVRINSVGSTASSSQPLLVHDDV
Chain of Ribosomal protein S6 kinase alpha-1 (Q15418 whole entry, the tested form may be a part): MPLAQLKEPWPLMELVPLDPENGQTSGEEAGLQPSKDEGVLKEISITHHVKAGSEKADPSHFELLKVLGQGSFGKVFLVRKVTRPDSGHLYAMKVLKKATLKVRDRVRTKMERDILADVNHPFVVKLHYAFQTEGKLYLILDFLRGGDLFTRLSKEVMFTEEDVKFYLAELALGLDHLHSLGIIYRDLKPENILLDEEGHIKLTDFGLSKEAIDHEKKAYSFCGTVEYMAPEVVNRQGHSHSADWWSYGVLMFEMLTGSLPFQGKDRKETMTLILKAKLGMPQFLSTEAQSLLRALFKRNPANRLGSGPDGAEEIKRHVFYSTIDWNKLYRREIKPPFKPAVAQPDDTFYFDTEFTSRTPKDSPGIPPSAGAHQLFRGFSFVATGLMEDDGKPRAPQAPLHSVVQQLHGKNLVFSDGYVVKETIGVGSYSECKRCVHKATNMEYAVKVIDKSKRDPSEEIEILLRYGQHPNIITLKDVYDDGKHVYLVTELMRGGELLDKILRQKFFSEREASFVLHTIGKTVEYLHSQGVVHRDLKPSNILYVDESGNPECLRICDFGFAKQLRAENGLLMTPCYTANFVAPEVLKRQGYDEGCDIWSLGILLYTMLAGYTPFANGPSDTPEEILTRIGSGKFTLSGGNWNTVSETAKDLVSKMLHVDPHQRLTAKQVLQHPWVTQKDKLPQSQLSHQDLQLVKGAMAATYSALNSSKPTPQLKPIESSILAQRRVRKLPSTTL
Chain of cGMP-dependent protein kinase 1 (Q13976 whole entry): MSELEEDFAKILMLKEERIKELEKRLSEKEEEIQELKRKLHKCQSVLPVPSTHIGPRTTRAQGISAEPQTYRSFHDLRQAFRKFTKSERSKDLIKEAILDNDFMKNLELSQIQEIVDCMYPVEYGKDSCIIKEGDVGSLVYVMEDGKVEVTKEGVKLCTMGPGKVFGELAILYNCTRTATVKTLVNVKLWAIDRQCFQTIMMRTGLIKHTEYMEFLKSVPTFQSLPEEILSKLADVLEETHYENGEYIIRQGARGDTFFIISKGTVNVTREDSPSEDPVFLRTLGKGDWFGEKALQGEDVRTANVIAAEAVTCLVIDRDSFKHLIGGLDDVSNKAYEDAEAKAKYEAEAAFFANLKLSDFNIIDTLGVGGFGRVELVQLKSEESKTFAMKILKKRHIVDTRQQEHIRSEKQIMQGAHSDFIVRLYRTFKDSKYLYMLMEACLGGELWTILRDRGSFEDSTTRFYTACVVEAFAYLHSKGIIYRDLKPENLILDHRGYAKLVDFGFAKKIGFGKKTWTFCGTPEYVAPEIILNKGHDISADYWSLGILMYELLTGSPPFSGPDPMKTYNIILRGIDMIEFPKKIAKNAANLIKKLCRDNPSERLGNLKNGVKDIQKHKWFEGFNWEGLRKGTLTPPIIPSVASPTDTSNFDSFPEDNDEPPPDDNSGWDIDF
Chain of Receptor-interacting serine/threonine-protein kinase 1 (Q13546 whole entry, the tested form may be a part): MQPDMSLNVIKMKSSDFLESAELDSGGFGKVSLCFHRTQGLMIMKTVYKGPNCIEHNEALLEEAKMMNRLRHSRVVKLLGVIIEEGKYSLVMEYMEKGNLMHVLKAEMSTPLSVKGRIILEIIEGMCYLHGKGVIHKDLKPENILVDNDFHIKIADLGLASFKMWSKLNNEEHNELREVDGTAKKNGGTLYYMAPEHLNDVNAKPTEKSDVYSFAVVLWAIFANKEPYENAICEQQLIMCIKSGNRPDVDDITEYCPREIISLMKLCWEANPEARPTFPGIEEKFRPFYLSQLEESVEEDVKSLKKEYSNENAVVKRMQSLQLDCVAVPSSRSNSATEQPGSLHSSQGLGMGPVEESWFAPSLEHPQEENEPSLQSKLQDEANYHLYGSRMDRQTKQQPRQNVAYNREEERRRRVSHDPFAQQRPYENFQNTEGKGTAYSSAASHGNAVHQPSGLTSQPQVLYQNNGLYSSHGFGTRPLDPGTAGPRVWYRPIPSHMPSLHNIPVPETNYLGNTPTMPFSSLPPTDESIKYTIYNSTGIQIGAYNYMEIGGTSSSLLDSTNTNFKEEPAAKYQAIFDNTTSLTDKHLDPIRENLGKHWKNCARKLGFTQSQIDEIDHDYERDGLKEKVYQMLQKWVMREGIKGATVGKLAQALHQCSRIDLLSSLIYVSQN
Chain of Serine/threonine-protein kinase 16 (O75716 whole entry): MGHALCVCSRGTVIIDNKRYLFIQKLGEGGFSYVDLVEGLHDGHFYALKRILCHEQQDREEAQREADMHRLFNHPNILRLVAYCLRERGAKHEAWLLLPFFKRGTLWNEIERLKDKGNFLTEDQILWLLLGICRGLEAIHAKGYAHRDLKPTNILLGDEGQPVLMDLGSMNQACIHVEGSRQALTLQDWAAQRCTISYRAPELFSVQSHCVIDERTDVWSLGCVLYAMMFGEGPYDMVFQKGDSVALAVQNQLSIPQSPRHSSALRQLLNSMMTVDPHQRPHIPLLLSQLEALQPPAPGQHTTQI
Chain of Mast/stem cell growth factor receptor Kit (Homo sapiens, UniProt P10721, V654A) (P10721 26-976 V654A limits assumed): as the sequence (P10721 26-976 V560G limits assumed) above, with G535V, V629A counted along it

## CN(C)c1ccc(C(=O)Nc2cccc(NC(=O)COc3ccc4c(=O)ccoc4c3)c2)cc1
[1]
  IC50: > 10 µM
[2]
  IC50: > 10 µM
[3]
  IC50: > 10 µM
[4]
  IC50: > 10 µM
[5]
  IC50: > 10 µM
[6]
  IC50: > 10 µM
Tribbles homolog 2
  IC50: > 10 µM
Ephrin type-B receptor 4
  IC50: > 10 µM
[7]
  IC50: > 10 µM
[8]
  IC50: > 10 µM
[9]
  IC50: > 10 µM
[10]
  IC50: > 10 µM
Ephrin type-B receptor 1
  IC50: > 10 µM
[11]
  IC50: > 10 µM
[12]
  IC50: 0.66 µM
[13]
  IC50: > 10 µM
[14]
  IC50: > 10 µM
[15]
  IC50: > 10 µM
[16]
  Papp at 1.5 h: 9.41 ×10⁻⁶ cm/s
[17]
  IC50: > 10 µM
[18]
  IC50: > 10 µM
[19]
  IC50: > 10 µM
[20]
  IC50: > 10 µM
[21]
  IC50: > 10 µM
[22]
  IC50: > 10 µM
